Assay results from patent publication US20180305292A1, “DERIVATIVES OF NONSTEROIDAL ANTI-INFLAMMATORY DRUGS” (priority 2015, published 2018).

Experiment: Metabolic stability in minipig intestinal fluid, quantification of released licofelone by HPLC/UV
Format: in vitro ADME, Gottingen SPF minipig
Details: incubation in diluted minipig intestinal fluid
Method: a) Preparation and Storage of Minipig Intestinal Fluid (IF)
Intestinal tissue/fluid and enterocyte samples were taken from a 10 month old, female Gottingen SPF minipig. The body weight was 21 kg. The minipig was fasted for approximately 28 hours before sampling of intestinal fluid/tissues and enterocytes. On the day of sampling, the minipig was weighed and anaesthetised. The animal was killed by exsanguination before sampling of intestinal fluid. An intestinal segment was ligated at both ends before removal. The isolated tissue was placed in isotonic saline and opened by a longitudinal cut for sampling of intestinal fluid.
The intestinal tissue from each segment was transferred into a Centrifuge Tube, immersed in 10 ml 50 mM phosphate buffer, pH 6.8 and frozen at −70° C.
b) Incubation Experiments with Minipig Intestinal Fluid (without FaSSIF) […]
c) Quantification of Licofelone by HPLC/UV
A set of six reference solutions (solvent: 1 vol IF and 4 vol 2% bovine serum albumin in FaSSIF pH 6.5) with licofelone concentrations between 38.0 and 0.19 μg/ml and the solvent without licofelone were analyzed in duplicate. The obtained concentration/peak area data pairs were subjected to linear regression analysis and the resulting calibration curve (r^2=0.9999) was used for quantification of licofelone in incubation experiments.

Q: Which “Cleavage of the ester bond, release of licofelone and monomethylfumarate” value does the source give for `COC(=O)/C=C/C(=O)OCCOCCOCCOCCOC(=O)Cc1c(-c2ccc(Cl)cc2)c(-c2ccccc2)c2n1CC(C)(C)C2` [Example 8, (E)-But-2-enedioic acid 2-{2-[2-(2-{2-[2-(4-chloro-phenyl)-6,6-dimethyl-1-phenyl-6,7-dihydro-5H-pyrrolizin-3-yl]-acetoxy}-ethoxy)-ethoxy]-ethoxy}-ethyl ester methyl ester] here?
A: The value was “unexpected smooth cleavage of the ester bond”.
